Patent US8536158B2, “Compounds having CRTH2 antagonist activity” (Atopix Therapeutics Limited, priority 2008, dated 2013)

Legend:
[1] = target: CRTH2 receptor (Homo sapiens (Human), UniProt Q9Y5Y4); assay: [3H]PGD2 radioligand binding assay on CHO/CRTH2 cell membranes; conditions: for Ki: [3H]PGD2, CHO/CRTH2 membranes
Procedure: Chinese Hamster Ovary cells were transfected with CRTH2 or DP receptors (CHO/CRTH2 and CHO/DP) and were maintained in culture in a humidified atmosphere at 37° C. (5% CO2) in Minimum Essential Medium (MEM) supplemented with 10% foetal bovine serum, 2 mM glutamine, and 1 mg ml^−1 active G418. The cells were passaged every 2-3 days. For radioligand binding assay, cells were prepared in triple-layer flasks or in 175 cm^2 square flasks (for membrane preparation).
Membranes were prepared either from CHO/CRTH2 and CHO/DP cells, or from platelets (as a source of TP receptors). CHO cells grown to confluency were washed with PBS and detached using a Versene solution (15 ml per flask). When the cells were grown in 175 cm^2 square flask, they were collected by scrapping in PBS. The cell suspensions were centrifuged (1,700 rpm, 10 min, 4° C.) and resuspended in 15 ml of buffer (1×HBSS, supplemented with 10 mM HEPES, pH 7.3). Cell suspensions were then homogenised using an Ultra Turrax at setting 4-6 for 20 s. The homogenate was centrifuged at 1,700 rpm for 10 min and the supernatant was collected and centrifuged at 20,000 rpm for 1 h at 4° C. The resulting pellet was resuspended in buffer and stored at −80° C. in aliquots of […] The protein concentration was determined by the method of Bradford (1976), using bovine serum albumin as standard. The platelets were washed by centrifugation at 600×g for 10 min and resuspended in ice-cold assay buffer (10 mM Tris-HCl, pH 7.4, 5 mM Glucose, 120 mM NaCl, 10 μM indomethacin) and directly centrifuged at 20,000 rpm for 30 min at 4° C. The resulting pellet was treated as described above.
[^3H]PGD2 (160 Ci/mmol) binding experiments were performed on membranes prepared as described above. Assays were performed in a final volume of 100 μl of buffer (1×HBSS/HEPES 10 mM, pH 7.3). Cell membranes (15 μg) were preincubated at room temperature with varying concentration of competing ligand for 15 min. [^3H]PGD2 was then added and the incubation continued for a further one hour at room temperature. The reaction was terminated by the addition of 200 μl ice-cold assay buffer to each well, followed by rapid filtration through Whatman GF/B glass fibre filters using a Unifilter Cell harvester (PerkinElmer Life Sciences) and six washes of 300 μl of ice-cold buffer. The Unifilter plates were dried at room temperature for at least 1 h and the radioactivity retained on the filters was determined on a Beta Trilux counter (PerkinElmer Life Sciences), following addition of 40 μl of Optiphase Hi-Safe 3 (Wallac) liquid scintillation. Non specific binding was defined in the presence of 10 μM unlabelled PGD2. Assays were performed in duplicate.

[2] = test system: eosinophils in human whole blood; assay: Human whole blood eosinophil shape change assay (PGD2-induced); type: cell-based; conditions: for IC50: Eosinophil, 10 nM PGD2, human whole blood, read-out: IC50 for effect on 10 nM PGD2-induced eosinophil shape change in human whole blood
Procedure: Compounds 1-3 were assayed for their effect on PGD2 induced eosinophil shape change and were compared with Comparator Compounds A, B and D.
Compounds (1 μl, 200× final concentration) were added directly to 200 μl whole blood, mixed well and incubated for 15 min, 37° C., 5% CO2. After this time, cell shape was fixed by addition of 300 μl Cytofix™ buffer (BD Biosciences), 15 min on ice. 10 ml RBC lysis buffer was added to the fixed cells, incubated 5 min, at room temperature and centrifuged, 300×g for 5 min. Supernatant (containing lysed red cells) was removed and the lysis step was repeated. Leukocytes were resuspended in 250 μl RPMI/10% FCS and shape change analysed by FACS. Eosinophils were gated out based on their autofluorescence and 2000 eosinophil events were counted per sample. Data were analysed in triplicate.

[3] = Microsomal stability; type: in vitro ADME, human; conditions: for Mean Parent remaining (%): 1 x 10^-6 M test compound, human liver microsomes 0.3 mg/ml, mean of two experiments; for unmetabolised in human liver microsomes: text states
Procedure: The percentage of the test compound remaining in the sample after 1 hour was measured in order to determine the rate of metabolism of test compound. The results are shown in Table 3, which gives the results for two experiments and the mean value obtained.

[4] = In vivo pharmacokinetic profile in the dog; conditions: plasma

Chain of CRTH2 receptor (Q9Y5Y4 whole entry): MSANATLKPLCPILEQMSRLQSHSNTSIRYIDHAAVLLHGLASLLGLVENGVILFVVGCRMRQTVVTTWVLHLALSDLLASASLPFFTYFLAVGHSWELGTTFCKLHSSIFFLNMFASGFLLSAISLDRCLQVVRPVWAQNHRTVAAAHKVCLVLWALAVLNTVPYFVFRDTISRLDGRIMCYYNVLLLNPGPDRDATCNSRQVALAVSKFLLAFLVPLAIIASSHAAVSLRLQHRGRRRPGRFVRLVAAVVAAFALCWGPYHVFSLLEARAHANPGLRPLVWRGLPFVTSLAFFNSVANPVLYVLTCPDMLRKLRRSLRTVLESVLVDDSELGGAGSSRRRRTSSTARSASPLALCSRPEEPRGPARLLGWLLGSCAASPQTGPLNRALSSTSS

| Ki [1] [nM] | IC50 [2] [nM] | Mean Parent remaining (%) [3] [%] | unmetabolised in human liver microsomes [3] [%] | half-life [4] [h] | binding to the CRTH2 receptor (in words) [1] | stability in human microsomes (in words) ([3]; human microsomes) | Structure (SMILES) | half-life ([4]; oral) [h] | CRTH2 antagonist potency under physiological conditions (in words) ([2]; eosinophil shape change test, whole blood) |
| --- | --- | --- | --- | --- | --- | --- | --- | --- | --- |
|  | 2.5 | 98 | 98 | 5 |  |  | Cc1c(Cc2cccnc2S(=O)(=O)c2ccc(F)cc2)c2cc(F)ccc2n1CC(=O)O [Compound 2, [5-Fluoro-3-({2-[(4-fluorobenzene)sulfonyl]pyridin-3-yl}methyl)-2-methylindol-1-yl]-acetic acid] |  |  |
|  | 10 |  |  |  |  |  | Cc1c(Cc2cccnc2S(=O)(=O)c2ccc(Cl)cc2)c2cc(F)ccc2n1CC(=O)O [Compound 3, [3-({2-[(4-Chlorobenzene)sulfonyl]pyridin-3-yl}methyl)-5-fluoro-2-methylindol-1-yl]-acetic acid] |  |  |
| 7 | 8 |  |  |  |  |  | Cc1c(Cc2ccc(S(C)(=O)=O)cc2)c2cc(F)ccc2n1CC(=O)O [Compound A, [3-(4-Methylsulfonyl-benzyl)-5-fluoro-2-methyl-indol-1-yl]-acetic acid] | 1 |  |
| 1 | 34 | 69 | 69 |  |  |  | Cc1c(Cc2ccncc2S(=O)(=O)c2ccccc2)c2cc(F)ccc2n1CC(=O)O [Compound B, [3-(3-Benzenesulfonyl-pyridin-4ylmethyl)-5-fluoro-2-methyl-indol-1-yl]-acetic acid] |  | not a particularly potent CRTH2 antagonist |
| 979 |  | 90 | 90 |  | bind only very weakly |  | Cc1c(Cc2ncccc2S(=O)(=O)c2ccccc2)c2cc(F)ccc2n1CC(=O)O [Compound C, [3-(3-Benzenesulfonyl-pyridin-2-ylmethyl)-5-fluoro-2-methyl-indol-1-yl]-acetic acid] |  |  |
|  | 8 | 24 | 24 |  |  | low stability | Cc1c(Cc2cccn2S(=O)(=O)c2ccccc2)c2cc(F)ccc2n1CC(=O)O [Compound D, [3-(1-Benzenesulfonyl-1H-pyrrol-2-ylmethyl)-5-fluoro-2-methyl-indol-1-yl]-acetic acid] |  |  |
| 258 |  |  |  |  | bind only very weakly |  | Cc1c(Cc2cccnc2)c2cc(F)ccc2n1CC(=O)O [Compound E] |  |  |

| Structure (SMILES) | Ki [1] [nM] | IC50 [2] [nM] | Mean Parent remaining (%) [3] [%] | unmetabolised in human liver microsomes [3] [%] | half-life [4] [h] | binding to the CRTH2 receptor (in words) [1] | stability in human microsomes (in words) ([3]; human microsomes) | half-life ([4]; oral) [h] | CRTH2 antagonist potency under physiological conditions (in words) ([2]; eosinophil shape change test, whole blood) |
| --- | --- | --- | --- | --- | --- | --- | --- | --- | --- |
| Cc1c(Cc2cccnc2S(=O)(=O)c2ccccc2)c2cc(F)ccc2n1CC(=O)O [Compound 1, (3-{[2-(Benzenesulfonyl)pyridin-3-yl]methyl}-5-fluoro-2-methylindol-1-yl)-acetic acid] | 2 | 9 | 96 | 96 |  |  |  | 3 |  |
